Data published in patent publication US20100189683A1, “Pulsatile Dosing of Gossypol for Treatment of Disease” (Ascenta Therapeutics, Inc., priority 2008, published 2010).

Test system: patients with advanced cancer
Test: Phase I clinical trial, daily versus pulsatile dosing of (−)-gossypol: adverse events graded by NCI-CTCAE v3 (Daily N = 38, BID × 3 d N = 21, Weekly N = 12)
Format: in vivo, human
Method: A phase I clinical trial was carried out to compare the maximum tolerated dose and safety of daily (i.e., continuous) versus pulsatile (i.e., intermittent) dosing of (−)-gossypol in patients with advanced cancer. A secondary objective of this study was to identify any anti-tumor activity of (−)-gossypol. Patients were treated with increasing doses of (−)-gossypol according to the following dosing schedules: “Daily” dosing: 5 to 60 mg/day of (−)-gossypol on 21 days per 28 day cycle; “BID×3d” dosing: 30 to 80 mg BID of (−)-gossypol on 3 consecutive days (e.g., Monday-Tuesday-Wednesday) repeated every other week per 28 day cycle; and “Weekly” dosing: 80 to 200 mg of (−)-gossypol once weekly per 28 day cycle. Adverse events (AEs) were graded by NCI-CTCAE v3.

Cc1cc2c(C(C)C)c(O)c(O)c(C=O)c2c(O)c1-c1c(C)cc2c(C(C)C)c(O)c(O)c(C=O)c2c1O [(−)-gossypol]
3 (14) N (%): Abdominal distention (BID × 3 d, Grade ½) | Dehydration (BID × 3 d, Grade ½) | Pain (BID × 3 d, Grade ½) | Pyrexia (BID × 3 d, Grade ½) | Hypokalemia (BID × 3 d, Grade ¾)
2 (10) N (%): ALT increase (BID × 3 d, Grade ½) | AST increase (BID × 3 d, Grade ½) | Alkaline phosphatase increase (BID × 3 d, Grade ½) | Creatinine increased (BID × 3 d, Grade ½) | Dizziness (BID × 3 d, Grade ½) | Dry mouth (BID × 3 d, Grade ½) | Dysgeusia (BID × 3 d, Grade ½) | Flatulence (BID × 3 d, Grade ½) | Proteinurea (BID × 3 d, Grade ½) | Urinary Tract Infection (BID × 3 d, Grade ½) | White blood cells increased (BID × 3 d, Grade ½) | Abdominal pain (BID × 3 d, Grade ¾) | Dehydration (BID × 3 d, Grade ¾) | Vomiting (BID × 3 d, Grade ¾)
13 (34) N (%): Diarrhea (Daily, Grade ½) | Vomiting (Daily, Grade ½)
5 (13) N (%): Headache (Daily, Grade ½) | Peripheral edema (Daily, Grade ½) | Urinary Tract Infection (Daily, Grade ½)
10 (48) N (%): Anorexia or decreased appetite (BID × 3 d, Grade ½)
15 (72) N (%): Fatigue/Asthenia (BID × 3 d, Grade ½)
22 (58) N (%): Nausea (Daily, Grade ½)
1 (3) N (%): Flatulence (Daily, Grade ½) | Hypokalemia (Daily, Grade ½) | Hyponatremia (Daily, Grade ½) | Infection (Daily, Grade ½) | Pleural Effusion (Daily, Grade ½)
9 (24) N (%): Constipation (Daily, Grade ½) | Dehydration (Daily, Grade ½)
6 (29) N (%): Constipation (BID × 3 d, Grade ½)
4 (11) N (%): Abdominal distention (Daily, Grade ½) | Pyrexia (Daily, Grade ½) | Sinusitis (Daily, Grade ½)
38 (100) N (%): Any AE (Daily, Grade ½)
3 (8) N (%): Dry mouth (Daily, Grade ½)
19 (50) N (%): Anorexia or decreased appetite (Daily, Grade ½)
31 (81) N (%): Fatigue/Asthenia (Daily, Grade ½)
5 (24) N (%): Abdominal pain (BID × 3 d, Grade ½) | Dyspnea (BID × 3 d, Grade ½)
16 (76) N (%): Any AE (BID × 3 d, Grade ½)
8 (21) N (%): Abdominal pain (Daily, Grade ½) | Cough (Daily, Grade ½)
7 (18) N (%): ALT increase (Daily, Grade ½) | Dizziness (Daily, Grade ½) | Insomnia (Daily, Grade ½)
11 (52) N (%): Any AE (BID × 3 d, Grade ¾)
8 (38) N (%): Diarrhea (BID × 3 d, Grade ½)
4 (19) N (%): Weight decreased (BID × 3 d, Grade ½)
1 (5) N (%): Abdominal discomfort (BID × 3 d, Grade ½) | Back pain (BID × 3 d, Grade ½) | Headache (BID × 3 d, Grade ½) | Hyperkalemia (BID × 3 d, Grade ½) | Hypokalemia (BID × 3 d, Grade ½) | Hyponatremia (BID × 3 d, Grade ½) | Insomnia (BID × 3 d, Grade ½) | Troponin I or T increased (BID × 3 d, Grade ½) | Anorexia or decreased appetite (BID × 3 d, Grade ¾) | Creatinine phosphokinase increase (BID × 3 d, Grade ¾) | Diarrhea (BID × 3 d, Grade ¾) | Fatigue/Asthenia (BID × 3 d, Grade ¾) | Hepatic encephalopathy (BID × 3 d, Grade ¾) | Hyperbilirubinaemia (BID × 3 d, Grade ¾) | Hyperkalemia (BID × 3 d, Grade ¾) | Hyponatremia (BID × 3 d, Grade ¾) | Pain (BID × 3 d, Grade ¾) | Pancreatitis (BID × 3 d, Grade ¾) | Pneumatosis intestinalis (BID × 3 d, Grade ¾) | Pneumonia (BID × 3 d, Grade ¾) | Renal Failure (BID × 3 d, Grade ¾) | Small intestinal obstruction (ileus) (BID × 3 d, Grade ¾)
11 (29) N (%): Weight decreased (Daily, Grade ½)
2 (5) N (%): Dysgeusia (Daily, Grade ½) | Hyperbilirubinaemia (Daily, Grade ½) | Hyperkalemia (Daily, Grade ½) | Hypocalcemia (Daily, Grade ½) | Troponin I or T increased (Daily, Grade ½)
14 (67) N (%): Nausea (BID × 3 d, Grade ½)
0 N (%): Albumin decreased (BID × 3 d, Grade ½) | Cough (BID × 3 d, Grade ½) | Creatinine phosphokinase increase (BID × 3 d, Grade ½) | Hepatic encephalopathy (BID × 3 d, Grade ½) | Hyperbilirubinaemia (BID × 3 d, Grade ½) | Hypocalcemia (BID × 3 d, Grade ½) | Infection (BID × 3 d, Grade ½) | Mental status changes (BID × 3 d, Grade ½) | Pancreatitis (BID × 3 d, Grade ½) | Peripheral edema (BID × 3 d, Grade ½) | Pleural Effusion (BID × 3 d, Grade ½) | Pneumatosis intestinalis (BID × 3 d, Grade ½) | Pneumonia (BID × 3 d, Grade ½) | Renal Failure (BID × 3 d, Grade ½) | Sinusitis (BID × 3 d, Grade ½) | Small intestinal obstruction (ileus) (BID × 3 d, Grade ½) | ALT increase (BID × 3 d, Grade ¾) | AST increase (BID × 3 d, Grade ¾) | Abdominal discomfort (BID × 3 d, Grade ¾) | Abdominal distention (BID × 3 d, Grade ¾) | Albumin decreased (BID × 3 d, Grade ¾) | Alkaline phosphatase increase (BID × 3 d, Grade ¾) | Back pain (BID × 3 d, Grade ¾) | Constipation (BID × 3 d, Grade ¾) | Cough (BID × 3 d, Grade ¾) | Creatinine increased (BID × 3 d, Grade ¾) | Dizziness (BID × 3 d, Grade ¾) | Dry mouth (BID × 3 d, Grade ¾) | Dysgeusia (BID × 3 d, Grade ¾) | Dyspnea (BID × 3 d, Grade ¾) | Flatulence (BID × 3 d, Grade ¾) | Headache (BID × 3 d, Grade ¾) | Hypocalcemia (BID × 3 d, Grade ¾) | Infection (BID × 3 d, Grade ¾) | Insomnia (BID × 3 d, Grade ¾) | Mental status changes (BID × 3 d, Grade ¾) | Nausea (BID × 3 d, Grade ¾) | Peripheral edema (BID × 3 d, Grade ¾) | Pleural Effusion (BID × 3 d, Grade ¾) | Proteinurea (BID × 3 d, Grade ¾) | Pyrexia (BID × 3 d, Grade ¾) | Sinusitis (BID × 3 d, Grade ¾) | Troponin I or T increased (BID × 3 d, Grade ¾) | Urinary Tract Infection (BID × 3 d, Grade ¾) | Weight decreased (BID × 3 d, Grade ¾) | White blood cells increased (BID × 3 d, Grade ¾) | Abdominal discomfort (Daily, Grade ½) | Albumin decreased (Daily, Grade ½) | Creatinine phosphokinase increase (Daily, Grade ½) | Hepatic encephalopathy (Daily, Grade ½) | Mental status changes (Daily, Grade ½) | Pancreatitis (Daily, Grade ½) | Pneumatosis intestinalis (Daily, Grade ½) | Pneumonia (Daily, Grade ½) | Proteinurea (Daily, Grade ½) | Renal Failure (Daily, Grade ½) | Small intestinal obstruction (ileus) (Daily, Grade ½) | White blood cells increased (Daily, Grade ½)
6 (16) N (%): AST increase (Daily, Grade ½) | Alkaline phosphatase increase (Daily, Grade ½) | Back pain (Daily, Grade ½) | Creatinine increased (Daily, Grade ½) | Dyspnea (Daily, Grade ½) | Pain (Daily, Grade ½)
9 (43) N (%): Vomiting (BID × 3 d, Grade ½)
